These results are taken from PubChem BioAssay (NCI).

Each structure is given as a SMILES string. Several values for one entry are separate records, joined by “and”; a condition that tells them apart may be missing. Equal values may be shown once.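 Five concentrations, 48 hours, 96-well plates. GI50 is the concentration that inhibits growth by half. Definition used: TGI = concentration required for complete inhibition of growth.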 Some results are limits rather than exact numbers.

Test systems include K-562 leukemia; HCC-2998 colon; HL-60(TB) leukemia; ACHN renal; SK-OV-3 ovarian; SK-MEL-2 melanoma; IGROV1 ovarian; UO-31 renal; KM20L2 colon; PC-3 prostate.
What all share (experiment): NCI anticancer screen, dose series, 48 h

`Cc1ccc(CCC(=O)C(=O)O)s1`: the TGI in the test with K-562 leukemia, in the test on HCC-2998 colon, in the test with HL-60(TB) leukemia, in the test on ACHN renal, in the test with SK-OV-3 ovarian and in the test on SK-MEL-2 melanoma was more than 100 µM in each case. In addition, the TGI in the test with IGROV1 ovarian, with UO-31 renal and in the test on KM20L2 colon was more than 100 µM throughout.

Consider `C=C1C(=O)OC2CC3(C)OC3CC/C(C)=C/C(OC(C)=O)C12` (stereo unspecified), for which the TGI with K-562 leukemia was 15.4 µM; with HCC-2998 colon, 31.6 µM; with HL-60(TB) leukemia, 3.4 µM; in the test with ACHN renal, 23.3 µM; in the test with PC-3 prostate, 26 µM; in the test with SK-OV-3 ovarian it was 37 µM. For the same compound, the TGI is 31.5 µM with SK-MEL-2 melanoma, 35.3 µM in the test on IGROV1 ovarian, 26.5 µM in the test with UO-31 renal and 20 µM in the test on KM20L2 colon.

In the case of `CCCC(=O)[O-].N.N.N.N.N.[Co+3].[O-][Cl+3]([O-])([O-])[O-]`, the TGI in the test with K-562 leukemia, with HCC-2998 colon, in the test with ACHN renal, with SK-OV-3 ovarian, with SK-MEL-2 melanoma and in the test on IGROV1 ovarian was more than 100 µM in each case. The TGI in the test on UO-31 renal and in the test with KM20L2 colon was more than 100 µM each time. The GI50 in the test on KM20L2 colon is more than 100 µM.

For the compound `O=c1oc2ccccc2c(O)c1C(C/C(CCN1CCCC1)=N\Nc1ccccc1)c1ccccc1` (stereo unspecified), the TGI in the test on K-562 leukemia is more than 100 µM; in the test on HCC-2998 colon, more than 100 µM; in the test with HL-60(TB) leukemia, 60 µM; in the test with ACHN renal it was more than 100 µM; with SK-OV-3 ovarian, more than 100 µM; in the test with SK-MEL-2 melanoma it was more than 100 µM. The TGI in the test on IGROV1 ovarian, with UO-31 renal and in the test with KM20L2 colon was more than 100 µM throughout.

For the compound `COC(=O)C(NC(=O)c1ccccc1)C(c1ccc(Cl)cc1)P(=O)(OC)OC` (stereo unspecified), the TGI with K-562 leukemia, in the test on HCC-2998 colon, with HL-60(TB) leukemia, in the test on ACHN renal, in the test with SK-OV-3 ovarian and in the test with SK-MEL-2 melanoma was more than 100 µM throughout. Besides, the TGI with IGROV1 ovarian, in the test on UO-31 renal and with KM20L2 colon was more than 100 µM in each case.

Regarding `COc1ccc(N2C(=O)C3c4[nH]c5ccccc5c4C4CCCCC4C3C2=O)cc1` (stereo unspecified), the TGI is 73.8 µM in the test on K-562 leukemia; 40.7 µM in the test with HCC-2998 colon; 55.1 µM in the test on HL-60(TB) leukemia; more than 100 µM with ACHN renal; 52.7 µM with SK-OV-3 ovarian; 53.5 µM in the test with SK-MEL-2 melanoma. The TGI is 64.3 µM in the test with IGROV1 ovarian, more than 100 µM in the test with UO-31 renal and more than 100 µM with KM20L2 colon.

On to `CCCCNC(=O)/N=C/c1c(O)c2ccccc2oc1=O`, for which the TGI in the test on HCC-2998 colon is more than 100 µM; in the test on HL-60(TB) leukemia it was 57.4 µM; in the test with ACHN renal, more than 100 µM; with SK-MEL-2 melanoma it was 66.1 µM; with IGROV1 ovarian it was more than 100 µM; in the test with UO-31 renal it was 56.3 µM. This compound returned a TGI in the test with KM20L2 colon of more than 100 µM.

Regarding `COc1ccc(C[C@H](N)C(=O)N2C[C@@H](CO)C[C@@H](n3ccc(=O)[nH]c3=O)C2)cc1`, the TGI with K-562 leukemia, in the test on HCC-2998 colon, in the test on HL-60(TB) leukemia, with ACHN renal, in the test with SK-OV-3 ovarian and with SK-MEL-2 melanoma was more than 100 µM throughout. In addition, the TGI with IGROV1 ovarian, with UO-31 renal and in the test on KM20L2 colon was more than 100 µM throughout.

As for `COc1ccc(Sc2ccccc2N)cc1`, the TGI is more than 100 µM in the test on K-562 leukemia; more than 100 µM in the test on HCC-2998 colon; 60.9 µM in the test with HL-60(TB) leukemia; more than 100 µM with ACHN renal; more than 100 µM in the test on SK-OV-3 ovarian; more than 100 µM in the test with SK-MEL-2 melanoma. Moreover, the values for the TGI in the test on IGROV1 ovarian, in the test on UO-31 renal and with KM20L2 colon were more than 100 µM, 92.9 µM and more than 100 µM, respectively.

For the compound `C/C=C(/C)C(=O)O[C@H]1[C@H](O)CC(c2ccc3c(c2O)C(O)=C2C(=O)C4(OC)C(O)=C(C(N)=O)C(=O)[C@H](CC(=O)c5ccccc5O)C4CC2[C@@]3(C)OC)O[C@@H]1C` (stereo partly specified), the TGI was 10.7 µM in the test with K-562 leukemia; 1.25 µM and 1.05 µM with HCC-2998 colon; 3.96 µM with ACHN renal; 0.187 µM in the test with PC-3 prostate; 5.72 µM and 2.05 µM in the test with SK-OV-3 ovarian; 0.0696 µM in the test on SK-MEL-2 melanoma. The TGI with IGROV1 ovarian was 2.48 µM and 0.341 µM; in the test with UO-31 renal it was 2.34 µM; in the test on KM20L2 colon, 0.0623 µM.

Consider `NC(CSSCC(N)Cc1ccccc1)Cc1ccccc1` (stereo unspecified), for which the TGI was more than 100 µM with K-562 leukemia; more than 100 µM with HCC-2998 colon; 74.4 µM in the test on HL-60(TB) leukemia; more than 100 µM in the test on ACHN renal; more than 100 µM in the test on SK-OV-3 ovarian; 88.7 µM in the test with SK-MEL-2 melanoma. Further, the TGI in the test on IGROV1 ovarian, in the test on UO-31 renal and in the test on KM20L2 colon was more than 100 µM throughout.

Regarding `COc1ccc2c(c1)OC[C@@H]1c3cc(O)c(OCc4ccccc4)cc3O[C@H]21`, the TGI is more than 100 µM in the test on K-562 leukemia; more than 100 µM with HCC-2998 colon; 52 µM in the test on HL-60(TB) leukemia; more than 100 µM in the test with ACHN renal; more than 100 µM in the test with SK-OV-3 ovarian; 60.8 µM with SK-MEL-2 melanoma. Also, the TGI was more than 100 µM in the test on IGROV1 ovarian, 75.9 µM with UO-31 renal and 97.2 µM in the test on KM20L2 colon.

With `O=C(N/N=C/c1cc(Br)cc(Br)c1[O-])c1ccccc1O.O=C(N/N=C/c1cc(Br)cc(Br)c1[O-])c1ccccc1O.[Ni+2]`, the TGI in the test with K-562 leukemia was 4.88 µM; with HCC-2998 colon, 1.39 µM; with HL-60(TB) leukemia it was 0.346 µM; in the test with ACHN renal it was 1.53 µM; with SK-OV-3 ovarian, 1.95 µM; in the test on SK-MEL-2 melanoma it was 1.3 µM. For the same compound, the TGI in the test on IGROV1 ovarian was 1.34 µM; in the test on UO-31 renal it was 8.5 µM; in the test on KM20L2 colon, 1.85 µM.

`CN1CCN(C2=CC(=O)c3c(O)ccc(O)c3C2=O)CC1`: the TGI with K-562 leukemia was 1.72 µM; in the test on HCC-2998 colon, 3.23 µM; in the test on HL-60(TB) leukemia it was 0.785 µM; in the test with ACHN renal, 2.88 µM; in the test on PC-3 prostate, more than 10 µM; with SK-OV-3 ovarian it was more than 10 µM. The TGI with SK-MEL-2 melanoma is 4.08 µM; in the test on IGROV1 ovarian, 3.06 µM; in the test on UO-31 renal it was 2.92 µM.

As to `COC1OC2=CCC3C(=O)NC(=O)C3C2[C@H](OCc2ccccc2)C1OCc1ccccc1` (stereo partly specified), the TGI in the test with HCC-2998 colon stood at 11.4 µM; in the test with ACHN renal, 34.8 µM; in the test on SK-OV-3 ovarian, 30.8 µM; with SK-MEL-2 melanoma, 16.4 µM; with IGROV1 ovarian, 3.86 µM; in the test with UO-31 renal it was 32.2 µM. This compound showed a TGI in the test with KM20L2 colon of 5.59 µM.

Turning to `CCC(NC1=NCCO1)c1cccs1` (stereo unspecified), the TGI in the test on K-562 leukemia amounted to 47.4 µM; in the test with HCC-2998 colon, 28.9 µM; with HL-60(TB) leukemia it was 82.7 µM; with ACHN renal, 29.4 µM; with PC-3 prostate it was 33.9 µM; in the test on SK-OV-3 ovarian it was 27.3 µM. The TGI worked out at 29.4 µM in the test with SK-MEL-2 melanoma, 39.3 µM with IGROV1 ovarian and 32.7 µM in the test with UO-31 renal.
